Where two headings read alike, the source gives them in different places. Each block holds one molecule with its values, some of them ahead of it.
How the values were obtained:
[1] = Metabolic stability in mouse liver microsomes; type: in vitro ADME; details: for susceptibility to glucuronidation (in words): liver microsomes with UDPGA; for stability in the presence of NADPH (in words): mouse liver microsomes
[2] = cited from earlier work; for susceptibility to glucuronidation (in words): liver microsomes with UDPGA, 60 min
[3] = system: plasma D-serine levels; details: mice, oral co-administration with D-serine; cited from earlier work
[4] = mice; cited from earlier work
[5] = Plasma pharmacokinetics after oral administration in mice; details: 30 mg/kg po
[6] = system: plasma D-serine levels; test: Effect on D-serine plasma pharmacokinetics after oral co-administration in mice; type: in vivo; details: inhibitor and D-serine both 30 mg/kg po
[7] = Binding to mouse plasma protein; type: in vitro ADME
[8] = target: recombinant human DAAO (Homo sapiens, UniProt P14920); test: Inhibition of recombinant human DAAO; type: biochemical; details: human DAAO IC50 ratio
[9] = system: dizocilpine-induced prepulse inhibition deficits; details: mouse, with D-serine exposure enhancement; cited from earlier work

Sequence of recombinant human DAAO (P14920 whole entry): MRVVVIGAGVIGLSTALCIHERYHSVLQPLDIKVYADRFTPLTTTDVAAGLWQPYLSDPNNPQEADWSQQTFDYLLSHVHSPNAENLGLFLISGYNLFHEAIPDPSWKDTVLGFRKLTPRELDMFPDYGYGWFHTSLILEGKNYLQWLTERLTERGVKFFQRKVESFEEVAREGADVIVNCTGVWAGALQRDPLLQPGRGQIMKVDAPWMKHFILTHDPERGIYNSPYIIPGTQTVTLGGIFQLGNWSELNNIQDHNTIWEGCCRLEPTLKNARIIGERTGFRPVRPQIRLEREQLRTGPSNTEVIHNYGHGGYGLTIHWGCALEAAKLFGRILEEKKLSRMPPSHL

susceptibility to glucuronidation (in words) [1]: resistant to glucuronidation | stability in the presence of NADPH (in words) [1]: stable
Structure (SMILES): O=c1[nH]nc(SCc2ccc3cc(F)ccc3c2)nc1O [Compound 6m, 3-((6-fluoronaphthalen-2-yl)methylthio)-6-hydroxy-1,2,4-triazin-5(2H)-one]

Structure (SMILES): O=c1[nH]nc(CCc2cc(F)cc(F)c2)cc1O [Compound 2b]
susceptibility to glucuronidation (in words) [2]: some degree of metabolic stability | % remaining after 60 min w/NADPH ([2]; mouse liver microsomes, NADPH): 92% | % remaining after 60 min w/UDPGA ([2]; mouse liver microsomes): 59%

Structure (SMILES): O=c1cc(CSc2ccc(Cl)c(Cl)c2)occ1O [Compound 1]
susceptibility to glucuronidation (in words) [2]: extensively glucuronidated | % remaining after 60 min w/UDPGA ([2]; mouse liver microsomes): 5%

Structure (SMILES): O=c1[nH]c(=O)n(Cc2cccc3ccccc23)nc1O [Compound 3]
degree of enhancement in plasma D-serine levels [3]: 2.2 fold | AUC following oral administration [4]: 12900 ng·h/mL | susceptibility to glucuronidation (in words) [2]: complete resistance to glucuronidation

time of Cmax after administration [5]: 30 min | susceptibility to glucuronidation (in words) [1]: resistant to glucuronidation | stability in the presence of NADPH (in words) [1]: stable | binding to mouse plasma protein [7]: 74%
Structure (SMILES): O=c1[nH]nc(CCc2ccccc2)nc1O [Compound 6b, 6-hydroxy-3-phenethyl-1,2,4-triazin-5(2H)-one]
D-serine AUC0–6hr on co-administration [6]: 74.2 µg·h/mL

fold more potent than the corresponding meta-phenyl derivative 6k [8]: 8 fold
Structure (SMILES): O=c1[nH]nc(SCc2ccc(-c3ccccc3)cc2)nc1O [Compound 6j]

Structure (SMILES): O=c1[nH]oc2cc(Cl)ccc12 [CBIO, 6-chloro-1,2-benzisoxazol-3(2H)-one]
effect on dizocilpine-induced prepulse inhibition deficits [9]: attenuation

From article PMC4816084 (Bioorganic & medicinal chemistry letters, 2016)
